Measured values published in US6716872B2, “Substituted pyrrolidine-2,3,4-trione 3-oxime derivatives which are active as NMDA receptor antagonists” (Gruenenthal GmbH, priority 1999, dated 2004).

Key:
male NMRI mice = assay: Phenylquinone-induced writhing test in the mouse; format: in vivo
Experimental: The study of the analgesic activity was also carried out in the phenylquinone-induced writhing in the mouse (modified by I. C. Hendershot et al, (1959) J. Pharmacol. Exp. Ther., vol. 125, pp. 237-240). Male NMRI mice weighing 25 to 30 g (Iffa, Credo, Belgium, were used for this. Groups of 10 animals per substance dose received 0.3 ml/mouse of a 0.02% aqueous solution of phenylquinone (phenylbenzoquinone, Sigma, Deisenhofen; preparation of the solution with the addition of 5% ethanol and storage in a water bath at 45° C.) administered intraperitoneally 10 minutes after intravenous administration of the particular compound. The animals were placed individually in observation cages. The number of pain-induced stretching movements (so-called writhing reactions=straightening of the body with stretching of the hind extremities) was counted by means of a push-button counter for 5 to 20 minutes after the administration of phenylquinone. Animals which received only physiological saline solution were also run as a control. All the substances were tested in the standard dosage of 10 mg/kg of body weight of the mouse. The percentage inhibition (% inhibition) of the writhing reaction by a substance was calculated according to the following equation: [formula]
For some of the compounds according to the invention the ED50 values with the 95% confidence range of the writhing reaction were calculated by means of regression analysis (evaluation program from Martens EDV Service, Eckental) from the dose-dependent decrease in the writhing reactions compared with phenylquinone control groups investigated in parallel.
The study of the analgesic activity was carried out in the phenylquinone-induced writhing in mice as described above.

[1] = target: T1, glycine binding site of the NMDA receptor channel (Rattus norvegicus, UniProt P35439); assay: Receptor binding test, displacement of (3H)-MDL 105.519 on rat cerebral membrane homogenates; details: rat cortex and hippocampus membranes, 1 nmol/l (3H)-MDL 105.519; Ki from IC50 by Cheng-Prusoff
T1 construct: from tissue; host or cells: rat brain cortex and hippocampus membrane homogenate (male Wistar rats, Charles River)
Experimental: Studies for determination of the affinity of the substituted pyrrolidine-2,3,4-trione 3-oxime derivatives of the general formula I according to the invention for the glycine binding site of the NMDA receptor channel were carried out on cerebral membrane homogenates (homogenate of the cortex and hippocampus area from the brain of male rats, Wistar strain, Charles River, WIGA GmbH, Sulzbach, Germany) by the method of Baron B. M. et al, J. Pharmacol. Exp. Ther., vol. 279, pp.62-68 (1996). […]
In the binding test, 50 mmol/l TRIS-acetate buffer pH 7.0 was employed as the buffer and 1 nmol/l (^3H)-MDL 105.519 (Baron B. M. et al, J. Pharmacol. Exp. Ther., vol. 279, pp. 62-68 (1996)) was employed as the radioactive ligand. The proportion of non-specific binding was determined in the presence of 1 mmol/l glycine.
In further batches, the compounds according to the invention were added in concentration series and the displacement of the radioactive ligand from its specific binding to the glycine binding site of the NMDA receptor channel was determined. […]

male albino mice (NMRI) = assay: Formalin test in mice, second (late) phase; format: in vivo; details: second (late) phase of formalin test
Experimental: The studies for determination of the antinociceptive action of the compounds according to the invention were carried out in the formalin test in male albino mice (NMRI, 25-35 g, Iffa Credo, Belgium).
The compounds according to the invention were investigated in the second phase of the formalin test to obtain information on the actions of the compounds according to the invention on chronic/inflammatory pain.
By a single subcutaneous formalin injection (20 μl, 1% aqueous solution) into the dorsal side of the right hind paw of freely mobile test animals, a nociceptive reaction was induced, which manifests itself in significant licking and biting of the paw affected.
For the investigation period in the second (late) phase of the formalin test, the nociceptive behavior was recorded continuously by observing the animals. […] After injection of substances which have an antinociceptive action in the formalin test, the modes of behaviour described for the animals are reduced, and possibly even eliminated. […] The behaviour of the rats after administration of the substance was compared with a control group (10 mice per substance dose).
On the basis of the quantification of the pain properties, the action of the substance in the formalin test was determined as a change from the control in per cent. The ED50 calculations were made by means of regression analysis. […]

Row | SMILES | melting point [°C] | % inhibition of the writhing reaction at 10 mg/kg intravenously (male NMRI mice) [%] | Ki [1] [nM] | % change from the control at 10 mg/kg (male albino mice (NMRI)) [%]
1 | COC(=C1NC(=O)C(=NO)C1=O)c1ccccc1 [Example 1, 5-(Methoxyphenylmethylene)-pyrrolidine-2,3,4-trione 3-oxime] | 174 | – | – | –
2 | O=C1NC(=Cc2cccc(Cl)c2Cl)C(=O)C1=NO [Example 6, 5-(2,3-Dichlorobenzylidene)-pyrrolidine-2,3,4-trione 3-oxime] | – | 52 | – | –
3 | O=C1NC(=C(Br)c2ccccc2)C(=O)C1=NO [Example 2, 5-(Bromophenylmethylene)-pyrrolidine-2,3,4-trione 3-oxime] | 158 | – | 430 | 36.3
4 | O=C1NC(=Cc2ccc(Cl)cc2)C(=O)C1=NO [Example 5, 5-(4-Chlorobenzylidene)-pyrrolidine-2,3,4-trione 3-oxime] | 190 | 50 | – | –
5 | O=C1NC(=Cc2cccc(Cl)c2)C(=O)C1=NO [Example 9, 5-(3-Chlorobenzylidene)-pyrrolidine-2,3,4-trione 3-oxime] | 185 | 81 | – | –
6 | O=C1NC(=Cc2ccccc2Cl)C(=O)C1=NO [Example 4, 5-(2-Chlorobenzylidene)-pyrrolidine-2,3,4-trione 3-oxime] | 176 | 55 | – | –
7 | O=C1NC(=Cc2c(Cl)cccc2Cl)C(=O)C1=NO [Example 8, 5-(2,6-Dichlorobenzylidene)-pyrrolidine-2,3,4-trione 3-oxime] | 232 | 51 | – | –
8 | O=C1NC(=Cc2ccc(Cl)cc2Cl)C(=O)C1=NO [Example 7, 5-(2,4-Dichlorobenzylidene)-pyrrolidine-2,3,4-trione 3-oxime] | 180 | 46 | – | –
